Measured values from US10662205B2, “Cyclic boronic acid ester derivatives and therapeutic uses thereof” (priority 2014, dated 2020).
Where two headings read alike, the source gives them in different places.

Columns and labels:
[1] = tested on: KP1005 (CTX-M-14); assay: Aztreonam potentiation (MPC@4); format: cell-based; conditions: aztreonam 4 μg/mL
[2] = tested on: KP1009 (CTX-M-15); assay: Aztreonam potentiation (MPC@4); format: cell-based; conditions: aztreonam 4 μg/mL
[3] = tested on: ec308 (SHV-5); assay: Aztreonam potentiation (MPC@4); format: cell-based; conditions: aztreonam 4 μg/mL
[4] = tested on: KP1010 (SHV-12); assay: Aztreonam potentiation (MPC@4); format: cell-based; conditions: aztreonam 4 μg/mL
[5] = tested on: ec302 (TEM-10); assay: Aztreonam potentiation (MPC@4); format: cell-based; conditions: aztreonam 4 μg/mL
[6] = tested on: KP1004 (KPC-2); assay: Aztreonam potentiation (MPC@4); format: cell-based; conditions: aztreonam 4 μg/mL
[7] = tested on: ECL1002; assay: Aztreonam potentiation (MPC@4); format: cell-based; conditions: aztreonam 4 μg/mL
[8] = tested on: EC1010 (CMY-6); assay: Aztreonam potentiation (MPC@4); format: cell-based; conditions: aztreonam 4 μg/mL
[9] = tested on: KP1005 (CTX-M-14); assay: Tigemonam potentiation (MPC@4); format: cell-based; conditions: tigemonam 4 μg/mL
[10] = tested on: KP1009 (CTX-M-15); assay: Tigemonam potentiation (MPC@4); format: cell-based
[11] = tested on: ec308 (SHV-5); assay: Tigemonam potentiation (MPC@4); format: cell-based; conditions: tigemonam 4 μg/mL
[12] = tested on: KP1010 (SHV-12); assay: Tigemonam potentiation (MPC@4); format: cell-based
[13] = tested on: ec302 (TEM-10); assay: Tigemonam potentiation (MPC@4); format: cell-based; conditions: tigemonam 4 μg/mL
[14] = tested on: ECL1002; assay: Tigemonam potentiation (MPC@4); format: cell-based; conditions: tigemonam 4 μg/mL
[15] = tested on: EC1010 (CMY-6); assay: Tigemonam potentiation (MPC@4); format: cell-based
[16] = target: CTX-M-14 (Escherichia coli, UniProt Q9L5C7); assay: Inhibition of nitrocefin cleavage by purified enzyme (Ki); format: biochemical; conditions: nitrocefin reporter substrate; 10 min preincubation; read-out: Ki CTX-M-14, NCF
Description: (§1) Ki values of inhibition of purified class A, C and D enzymes were determined spectrophotometrically using nitrocefin as reporter substrate. Purified enzymes were mixed with various concentrations of inhibitors in reaction buffer and incubated for 10 min at room temperature. Nitrocefin was added and substrate cleavage profiles were recorded at 490 nm every 10 sec for 10 min.

[17] = target: CMY-2 (Klebsiella pneumoniae, UniProt Q48434); assay: as above; format: biochemical
Description: (§2) Ki values of inhibition of purified class A, C and D enzymes were determined spectrophotometrically using nitrocefin as reporter substrate. Purified enzymes were mixed with various concentrations of inhibitors in reaction buffer and incubated for 10 min at room temperature. Nitrocefin was added and substrate cleavage profiles were recorded at 490 nm every 10 sec for 10 min. These experiments confirmed that the described compounds are inhibitors with a broad-spectrum of activity towards various β-lactamases.

[18] = target: KPC-2 (Klebsiella pneumoniae, UniProt Q9F663); assay: as above; format: biochemical; conditions: nitrocefin reporter substrate; 10 min preincubation; read-out: Ki KPC-2, NCF
Description: as §2

[19] = target: OXA-48 (Klebsiella pneumoniae, UniProt Q6XEC0); assay: as above; format: biochemical; conditions: nitrocefin reporter substrate; 10 min preincubation; read-out: Ki OXA-48, NCF
Description: as §2

[20] = tested on: KP1004 (KPC-2); assay: Biapenem potentiation (MPC@1); conditions: biapenem 1 μg/mL
[21] = tested on: KP1086 (OXA-48); assay: Biapenem potentiation (MPC@1); conditions: biapenem 1 μg/mL
[22] = target: SHV-12 (Klebsiella pneumoniae, UniProt P0AD64, E235K/G234S/L31Q); assay: Inhibition of nitrocefin cleavage by purified enzyme (Ki); format: biochemical
Description: as §1

[23] = target: P99 (Enterobacter cloacae, UniProt P05364); assay: biochemical; conditions: nitrocefin reporter substrate; 10 min preincubation; read-out: Ki P99, NCF
Description: as §1

[24] = tested on: PAM1032/KPC-2; assay: Biapenem potentiation MPC64, efflux proficient strain; format: cell-based, Pseudomonas aeruginosa; design: unit not given here; conditions: efflux proficient (MexAB-OprM overexpressed); decrease biapenem MIC 64-fold, 32 to 0.5 μg/ml
Description: (§3) Efflux of BLIs from Pseudomonas aeruginosa by the MexAB-OprM efflux pump was also evaluated. The plasmid expressing the gene encoding KPC-2 was introduced into two strains of P. aeruginosa, PAM1032 and PAM1154 that overexpressed or lacked MexAB-OprM, respectively. Due to expression of KPC-2 both strains became resistant to biapenem. […] Potency of BLIs to potentiate biapenem in these strains was determined. […] The ratio of MPC64 values for each BLI in PAM1032/KPC-2 (efflux proficient) and PAM1154/KPC-2 (efflux deficient) was determined to generate the Efflux Index (EI).

[25] = tested on: PAM1154/KPC-2; assay: Biapenem potentiation MPC64, efflux deficient strain; format: cell-based, Pseudomonas aeruginosa; design: unit not given here; conditions: efflux deficient (lacks MexAB-OprM); decrease biapenem MIC 64-fold, 32 to 0.5 μg/ml
Description: as §3

[26] = nitrocefin reporter substrate, 10 min preincubation, read-out: Ki CMY-2, NCF
[27] = tigemonam 4 μg/mL, EC1010, CMY-6

OXA-48, sequence (Q6XEC0 23-265, looked up, species assumed): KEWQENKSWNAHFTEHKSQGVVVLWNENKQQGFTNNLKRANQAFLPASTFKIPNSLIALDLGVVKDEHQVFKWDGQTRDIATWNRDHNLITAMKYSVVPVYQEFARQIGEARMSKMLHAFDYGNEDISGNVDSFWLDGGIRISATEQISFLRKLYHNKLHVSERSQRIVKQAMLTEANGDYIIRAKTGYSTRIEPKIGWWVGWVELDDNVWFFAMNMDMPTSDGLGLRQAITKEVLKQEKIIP
CMY-2, sequence (Q48434 21-381, species assumed): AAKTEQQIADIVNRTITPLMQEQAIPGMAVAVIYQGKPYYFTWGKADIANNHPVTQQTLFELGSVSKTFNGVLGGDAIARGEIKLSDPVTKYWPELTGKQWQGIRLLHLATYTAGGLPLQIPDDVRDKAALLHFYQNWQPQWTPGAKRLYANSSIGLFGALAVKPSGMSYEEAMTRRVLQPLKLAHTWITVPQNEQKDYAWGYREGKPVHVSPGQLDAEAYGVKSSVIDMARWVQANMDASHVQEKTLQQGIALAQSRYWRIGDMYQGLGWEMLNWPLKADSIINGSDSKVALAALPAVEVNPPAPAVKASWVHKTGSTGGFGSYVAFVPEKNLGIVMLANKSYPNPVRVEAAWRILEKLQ
CTX-M-14, sequence (Q9L5C7 29-291): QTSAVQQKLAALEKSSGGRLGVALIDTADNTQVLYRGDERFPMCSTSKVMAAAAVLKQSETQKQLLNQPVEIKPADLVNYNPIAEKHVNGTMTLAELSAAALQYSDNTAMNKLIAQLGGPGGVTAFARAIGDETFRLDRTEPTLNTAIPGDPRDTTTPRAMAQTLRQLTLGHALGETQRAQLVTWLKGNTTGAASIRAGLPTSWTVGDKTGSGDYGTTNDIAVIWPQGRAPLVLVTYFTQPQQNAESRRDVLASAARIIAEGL
KPC-2, sequence (Q9F663 25-293, looked up, species assumed): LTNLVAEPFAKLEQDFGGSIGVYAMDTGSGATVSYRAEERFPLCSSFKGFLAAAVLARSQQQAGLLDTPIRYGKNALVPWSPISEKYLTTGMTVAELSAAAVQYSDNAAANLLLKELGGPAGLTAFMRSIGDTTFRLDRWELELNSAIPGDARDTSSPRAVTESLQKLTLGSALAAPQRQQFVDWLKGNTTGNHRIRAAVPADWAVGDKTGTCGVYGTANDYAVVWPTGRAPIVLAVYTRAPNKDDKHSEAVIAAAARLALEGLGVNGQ
P99, sequence (P05364 21-381): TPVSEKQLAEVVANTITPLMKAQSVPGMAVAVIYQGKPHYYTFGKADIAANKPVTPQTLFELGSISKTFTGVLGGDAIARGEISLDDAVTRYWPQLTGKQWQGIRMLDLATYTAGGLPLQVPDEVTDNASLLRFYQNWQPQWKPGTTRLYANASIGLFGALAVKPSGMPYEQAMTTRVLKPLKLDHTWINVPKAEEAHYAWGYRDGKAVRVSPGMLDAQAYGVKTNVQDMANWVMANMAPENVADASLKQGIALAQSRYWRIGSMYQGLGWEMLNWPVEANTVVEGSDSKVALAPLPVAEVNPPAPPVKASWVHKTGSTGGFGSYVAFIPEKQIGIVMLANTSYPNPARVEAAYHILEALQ
SHV-12, sequence (P0AD64 22-286 L31Q/G234S/E235K): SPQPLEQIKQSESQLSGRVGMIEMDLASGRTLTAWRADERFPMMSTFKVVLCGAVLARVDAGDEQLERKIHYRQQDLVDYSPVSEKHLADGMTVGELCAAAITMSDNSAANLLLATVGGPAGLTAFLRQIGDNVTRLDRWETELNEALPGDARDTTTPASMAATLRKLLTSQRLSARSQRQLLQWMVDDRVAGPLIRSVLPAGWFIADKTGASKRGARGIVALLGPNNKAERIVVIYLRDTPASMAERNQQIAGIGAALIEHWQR

Row | SMILES | MPC@4 aztreonam potentiation [1] | MPC@4 aztreonam potentiation [2] | MPC@4 aztreonam potentiation [3] | MPC@4 aztreonam potentiation [4] | MPC@4 aztreonam potentiation [5] | MPC@4 aztreonam potentiation [6] | MPC@4 aztreonam potentiation [7] | MPC@4 aztreonam potentiation [8] | MPC@4 tigemonam potentiation [9] | MPC@4 tigemonam potentiation [10] | MPC@4 tigemonam potentiation [11] | MPC@4 tigemonam potentiation [12] | MPC@4 tigemonam potentiation [13] | MPC@4 tigemonam potentiation [14] | Ki [16] [nM] | Ki [17, 26] [nM] | Ki [18] [nM] | Ki [19] [nM] | MPC@1 biapenem potentiation [20] | MPC@1 biapenem potentiation [21] | other results
1 | O=C(O)[C@H]1/C(=C/CO)O[C@@H]2CC(=O)N21 [Clavulanic Acid, reference compound] | X (X = MPC@4 ≤ 5 μg/mL) | X (X = MPC@4 ≤ 5 μg/mL) | X (X = MPC@4 ≤ 5 μg/mL) | X (X = MPC@4 ≤ 5 μg/mL) | X (X = MPC@4 ≤ 5 μg/mL) | Z (Z = MPC@4 > 20 μg/mL) | Z (Z = MPC@4 > 20 μg/mL) | Z (Z = MPC@4 > 20 μg/mL) | X (X = MPC@4 ≤ 5 μg/mL) | X (key: X = MPC@4 ≤ 5 μg/mL; Y = 5 μg/mL < MPC@4 ≤ 20 μg/mL; Z = MPC@4 > 20 μg/mL) | X (X = MPC@4 ≤ 5 μg/mL) | X (key: X = MPC@4 ≤ 5 μg/mL; Y = 5 μg/mL < MPC@4 ≤ 20 μg/mL; Z = MPC@4 > 20 μg/mL) | X (X = MPC@4 ≤ 5 μg/mL) | Y (Y = 5 μg/mL < MPC@4 ≤ 20 μg/mL) | < 100 | > 1000 | > 1000 | > 1000 | Y (Y = 5 μg/mL < MPC@1 ≤ 20 μg/mL) | Z (Z = MPC@1 > 20 μg/mL) | MPC@4 tigemonam potentiation [15]: Y (key: X = MPC@4 ≤ 5 μg/mL; Y = 5 μg/mL < MPC@4 ≤ 20 μg/mL; Z = MPC@4 > 20 μg/mL)
2 | N#CCSCC(=O)N[C@H]1CC=C[C@@H]2CC(=O)OB1O2 [Compound 2, 2-(CYANOMETHYLTHIO)-N-((2R,6S)-8-OXO-9,10-DIOXA-1-BORABICYCLO[4.3.1]DEC-4-EN-2-YL)ACETAMIDE] | X (X = MPC@4 ≤ 5 μg/mL) | X (X = MPC@4 ≤ 5 μg/mL) | X (X = MPC@4 ≤ 5 μg/mL) | X (X = MPC@4 ≤ 5 μg/mL) | X (X = MPC@4 ≤ 5 μg/mL) | X (X = MPC@4 ≤ 5 μg/mL) | X (X = MPC@4 ≤ 5 μg/mL) | X (X = MPC@4 ≤ 5 μg/mL) | X (X = MPC@4 ≤ 5 μg/mL) | X (key: X = MPC@4 ≤ 5 μg/mL; Y = 5 μg/mL < MPC@4 ≤ 20 μg/mL; Z = MPC@4 > 20 μg/mL) | X (X = MPC@4 ≤ 5 μg/mL) | X (key: X = MPC@4 ≤ 5 μg/mL; Y = 5 μg/mL < MPC@4 ≤ 20 μg/mL; Z = MPC@4 > 20 μg/mL) | Y (Y = 5 μg/mL < MPC@4 ≤ 20 μg/mL) | X (X = MPC@4 ≤ 5 μg/mL) | < 100 | < 100 | 100 to 1000 | 100 to 1000 | X (X = MPC@1 ≤ 5 μg/mL) | Z (Z = MPC@1 > 20 μg/mL) | MPC@4 tigemonam potentiation [15, 27]: X (X = MPC@4 ≤ 5 μg/mL); Ki [22]: < 100 nM; Ki [23]: < 100 nM; PAM1032/KPC-2 Biapenem MPC64 [24]: 80; PAM1154/KPC-2 Biapenem MPC64 [25]: 5
3 | Cc1nnc(SCC(=O)N[C@H]2CC=C[C@@H]3CC(=O)OB2O3)s1 [Compound 8, 2-(5-METHYL-1,3,4-THIADIAZOL-2-YLTHIO)-N-((2R,6S)-8-OXO-9,10-DIOXA-1-BORABICYCLO[4.3.1]DEC-4-EN-2-YL)ACETAMIDE] | X (X = MPC@4 ≤ 5 μg/mL) |  | X (X = MPC@4 ≤ 5 μg/mL) | X (X = MPC@4 ≤ 5 μg/mL) | X (X = MPC@4 ≤ 5 μg/mL) | Y (Y = 5 μg/mL < MPC@4 ≤ 20 μg/mL) | X (X = MPC@4 ≤ 5 μg/mL) | Y (Y = 5 μg/mL < MPC@4 ≤ 20 μg/mL) | Y (Y = 5 μg/mL < MPC@4 ≤ 20 μg/mL) | X (key: X = MPC@4 ≤ 5 μg/mL; Y = 5 μg/mL < MPC@4 ≤ 20 μg/mL; Z = MPC@4 > 20 μg/mL) | Y (Y = 5 μg/mL < MPC@4 ≤ 20 μg/mL) | X (key: X = MPC@4 ≤ 5 μg/mL; Y = 5 μg/mL < MPC@4 ≤ 20 μg/mL; Z = MPC@4 > 20 μg/mL) | Y (Y = 5 μg/mL < MPC@4 ≤ 20 μg/mL) | X (X = MPC@4 ≤ 5 μg/mL) | < 100 | < 100 | 100 to 1000 | < 100 | X (X = MPC@1 ≤ 5 μg/mL) | Z (Z = MPC@1 > 20 μg/mL) | MPC@4 tigemonam potentiation [15, 27]: X (X = MPC@4 ≤ 5 μg/mL); Ki [22]: < 100 nM; Ki [23]: < 100 nM
4 | C[C@]1(Cn2ccnn2)[C@H](C(=O)O)N2C(=O)C[C@H]2S1(=O)=O [Tazobactam, reference compound] | Y (Y = 5 μg/mL < MPC@4 ≤ 20 μg/mL) | Y (Y = 5 μg/mL < MPC@4 ≤ 20 μg/mL) |  | X (X = MPC@4 ≤ 5 μg/mL) | X (X = MPC@4 ≤ 5 μg/mL) | Z (Z = MPC@4 > 20 μg/mL) | Z (Z = MPC@4 > 20 μg/mL) | Y (Y = 5 μg/mL < MPC@4 ≤ 20 μg/mL) |  |  | X (X = MPC@4 ≤ 5 μg/mL) |  | X (X = MPC@4 ≤ 5 μg/mL) |  |  |  | > 1000 | 100 to 1000 | Z (Z = MPC@1 > 20 μg/mL) | Y (Y = 5 μg/mL < MPC@1 ≤ 20 μg/mL) | MPC@4 tigemonam potentiation ([10]; tigemonam 4 μg/mL, KP1009, CTX-M-15): Y (Y = 5 μg/mL < MPC@4 ≤ 20 μg/mL); MPC@4 tigemonam potentiation ([12]; tigemonam 4 μg/mL, KP1010, SHV-12): X (X = MPC@4 ≤ 5 μg/mL); MPC@4 tigemonam potentiation [15, 27]: X (X = MPC@4 ≤ 5 μg/mL); Ki [17]: 100 to 1000 nM
